Reference: ChEMBL document CHEMBL4334501, “A drug repurposing screening reveals a novel epigenetic activity of hydroxychloroquine” (Eur J Med Chem, 2019)
Active and inactive are the calls of the source. The rule behind the calls is not given here.

Legend:
[1] = target: Polycomb protein EED (Homo sapiens) (UniProt O75530); test: Inhibition of EED subunit of PRC2 complex in human MM1S cells assessed as reduction in H3K27me3 expression after 24 hrs by Western blot analysis; format: cell-based
[2] = target: Polycomb protein EED (Homo sapiens) (UniProt O75530); test: Inhibition of HA-tagged human EED subunit of PRC2 complex expressed in human MM1S cells assessed as reduction in transfected EED cDNA vector-induced H3K27me3 overexpression at 10 uM after 24 hrs by Western blot analysis; format: cell-based

Chain of Polycomb protein EED (Homo sapiens) (O75530 2-441 limits assumed): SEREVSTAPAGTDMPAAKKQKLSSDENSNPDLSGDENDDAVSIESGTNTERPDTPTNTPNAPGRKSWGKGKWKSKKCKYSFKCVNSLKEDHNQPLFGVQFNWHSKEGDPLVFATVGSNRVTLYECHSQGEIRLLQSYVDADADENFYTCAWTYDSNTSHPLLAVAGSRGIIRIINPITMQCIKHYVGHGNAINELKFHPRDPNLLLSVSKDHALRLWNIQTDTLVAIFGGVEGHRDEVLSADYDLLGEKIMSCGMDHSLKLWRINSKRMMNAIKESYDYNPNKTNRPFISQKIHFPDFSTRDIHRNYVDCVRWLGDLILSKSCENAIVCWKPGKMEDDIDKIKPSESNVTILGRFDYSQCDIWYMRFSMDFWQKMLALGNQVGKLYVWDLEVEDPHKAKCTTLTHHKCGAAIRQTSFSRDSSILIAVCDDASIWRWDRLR

- inhibition [1]: Dose-dependent effect
- inhibition [2]: Active
SMILES: CCN(CCO)CCCC(C)Nc1ccnc2cc(Cl)ccc12 (configuration not stated)
